The supplement of paper PMC13380429

Key:
Settings in all cases: 72 h
HepG2 [1] = assay: cell viability relative to DMSO; higher = less toxic
Vero E6 [2] = assay: as above
Caco-2 [3] = assay: as above
Calu-3 [4] = assay: as above
U2OS [5] = assay: as above
HepG2 [6] = assay: relative viability EC50 (midpoint between 100% and the lowest measured viability); higher = less toxic
Vero E6 [7] = assay: as above
Caco-2 [8] = assay: as above
Calu-3 [9] = assay: as above
U2OS [10] = assay: as above
HepG2 [11] = assay: drug sensitivity score (DSS) for viability; higher = more toxic; extreme values may be limits of the assay
Vero E6 [12] = assay: as above
Caco-2 [13] = assay: as above
Calu-3 [14] = assay: as above
U2OS [15] = assay: as above

Row | SMILES | cell viability (HepG2 [1]; 1 nM) [%] | cell viability (HepG2 [1]; 10 nM) [%] | cell viability (HepG2 [1]; 100 nM) [%] | cell viability (HepG2 [1]; 1000 nM) [%] | cell viability (HepG2 [1]; 10000 nM) [%] | cell viability (Vero E6 [2]; 1 nM) [%] | cell viability (Vero E6 [2]; 10 nM) [%] | cell viability (Vero E6 [2]; 100 nM) [%] | cell viability (Vero E6 [2]; 1000 nM) [%] | cell viability (Vero E6 [2]; 10000 nM) [%] | cell viability (Caco-2 [3]; 1 nM) [%] | cell viability (Caco-2 [3]; 10 nM) [%] | cell viability (Caco-2 [3]; 100 nM) [%] | cell viability (Caco-2 [3]; 1000 nM) [%] | cell viability (Caco-2 [3]; 10000 nM) [%] | cell viability (Calu-3 [4]; 1 nM) [%] | cell viability (Calu-3 [4]; 10 nM) [%] | cell viability (Calu-3 [4]; 100 nM) [%] | cell viability (Calu-3 [4]; 1000 nM) [%] | cell viability (Calu-3 [4]; 10000 nM) [%] | cell viability (U2OS [5]; 1 nM) [%] | cell viability (U2OS [5]; 10 nM) [%] | cell viability (U2OS [5]; 100 nM) [%] | cell viability (U2OS [5]; 1000 nM) [%] | cell viability (U2OS [5]; 10000 nM) [%] | relative viability EC50 (HepG2 [6]) [µM] | relative viability EC50 (Vero E6 [7]) [µM] | relative viability EC50 (Caco-2 [8]) [µM] | relative viability EC50 (Calu-3 [9]) [µM] | relative viability EC50 (U2OS [10]) [µM] | drug sensitivity score (HepG2 [11]) | drug sensitivity score (Vero E6 [12]) | drug sensitivity score (Caco-2 [13]) | drug sensitivity score (Calu-3 [14]) | drug sensitivity score (U2OS [15])
1 | O=C(O)CNC(=O)c1ccccc1 [hippuric-acid] | 100 | 98.3 | 99.4 | 102 | 95.7 | 96 | 98.1 | 97.1 | 94.7 | 100 | 96.9 | 107 | 89.2 | 90 | 92.8 | 99 | 97.6 | 94.3 | 96.6 | 99.9 | 100 | 99.3 | 106 | 95.2 | 95.7 | > 10 | > 10 | > 10 | > 10 | > 10 | 0 | 0 | 0.4 | 0 | 0
2 | Cc1nccn1CCC(C(N)=O)(c1ccccc1)c1ccccc1 [imidafenacin] | 101 | 97.3 | 97.5 | 95 | 92.5 | 97.9 | 100 | 95.5 | 99.2 | 97.2 | 99.4 | 91.8 | 92.8 | 87.3 | 93.4 | 106 | 107 | 106 | 97.9 | 102 | 99 | 94 | 101 | 96.4 | 96.5 | > 10 | > 10 | > 10 | > 10 | > 10 | 0 | 0 | 0.1 | 0 | 0
3 | CC(=O)N(C)c1cccc(-c2ccnc3c(C(=O)c4cccs4)cnn23)c1 [indiplon] | 100 | 103 | 97.3 | 96.7 | 77.3 | 105 | 102 | 97.1 | 107 | 91.3 | 100 | 92.6 | 93.5 | 103 | 92.1 | 99.4 | 98.2 | 91.6 | 96.3 | 101 | 112 | 99.4 | 101 | 96.5 | 100 | > 10 | > 10 | > 10 | > 10 | > 10 | 1.3 | 0 | 0 | 0 | 0
4 | N=C(N)NCc1cccc(I)c1 [iobenguane] | 104 | 91.6 | 79.8 | 79.3 | 83 | 100 | 104 | 111 | 102 | 87.7 | 114 | 100 | 118 | 85.6 | 81.4 | 110 | 98.9 | 107 | 111 | 98.6 | 97.6 | 99.8 | 99.1 | 95.2 | 95.9 | > 10 | > 10 | > 10 | > 10 | > 10 | 6.1 | 0 | 1.7 | 0 | 0
5 | CC(=O)N(CC(C)C(=O)O)c1c(I)cc(I)c(N)c1I (stereo not given) [iocetamic-acid] | 93 | 102 | 99.8 | 102 | 96.1 | 107 | 103 | 97.3 | 105 | 101 | 101 | 99.3 | 90.6 | 95.5 | 99.9 | 97.3 | 98.6 | 91.5 | 90.3 | 95.4 | 98.2 | 103 | 104 | 102 | 101 | > 10 | > 10 | > 10 | > 10 | > 10 | 0 | 0 | 0 | 0 | 0
6 | O=C1CC[C@@](c2ccccc2)(C2CCN(Cc3ccc(I)cc3)CC2)C(=O)N1 [iododexetimide] | 107 | 96.4 | 92.5 | 87.5 | 83.6 | 98.7 | 100 | 102 | 100 | 93 | 89 | 104 | 98.1 | 97.7 | 93.9 | 97.8 | 110 | 102 | 107 | 104 | 98.8 | 95.5 | 94.3 | 100 | 90.4 | > 10 | > 10 | > 10 | > 10 | > 10 | 1.4 | 0 | 0 | 0 | 0
